{
  "source": "paper PMC4472245",
  "about": "“Alternative divalent cations (Zn^2+, Co^2+, and Mn^2+) are not mutagenic at conditions optimal for HIV-1 reverse transcriptase activity” (BMC Biochemistry, 2015)",
  "key": {"[1]": {"target": "T1, HIV RT (HIV-1 reverse transcriptase, p66/p51) (HIV-1 M:B_HXB2R, UniProt P04585)", "T1 construct": "gene gag-pol", "settings": "read-out: ^d K m / μM, 0.4 mM free Zn2+ instead of Mg2+, DNA primer-template, pH 7.7, 37 °C", "text": "steady-state running-start incorporation, gel on HIV RT (HIV-1 reverse transcriptase, p66/p51)"}, "[2]": {"target": "T1, HIV RT (HIV-1 reverse transcriptase, p66/p51)", "settings": "read-out: ^d K m / μM; 0.4 mM free Zn2+ instead of Mg2+; DNA primer-template with matched C.G 3' end; next correct nucleotide; pH 7.7, 37 °C, 80 mM KCl"}},
  "note": "Like-named read-outs stand apart in the source and are kept apart here.",
  "data": [
    {"smiles": "Nc1ncnc2c1ncn2[C@H]1C[C@H](O)[C@@H](COP(=O)(O)OP(=O)(O)OP(=O)(O)O)O1", "note": "[dATP]", "values": [
      {"measurement": "Km", "setting": "[1]; misinsertion opposite template C (C.A mismatch)", "value": "518 ± 43", "unit": "µM"}
    ]},
    {"smiles": "Cc1cn([C@H]2C[C@H](O)[C@@H](COP(=O)(O)OP(=O)(O)OP(=O)(O)O)O2)c(=O)[nH]c1=O", "note": "[dTTP]", "values": [
      {"measurement": "Km", "setting": "[1]; misinsertion opposite template C (C.T mismatch), 55 μM dATP", "value": "244 ± 102", "unit": "µM"}
    ]},
    {"smiles": "Nc1ccn([C@H]2C[C@H](O)[C@@H](COP(=O)(O)OP(=O)(O)OP(=O)(O)O)O2)c(=O)n1", "note": "[dCTP]", "values": [
      {"measurement": "Km", "setting": "[2]", "value": "0.04 ± 0.01", "unit": "µM"}
    ]},
    {"smiles": "Nc1nc2c(ncn2[C@H]2C[C@H](O)[C@@H](COP(=O)(O)OP(=O)(O)OP(=O)(O)O)O2)c(=O)[nH]1", "note": "[dGTP]", "values": [
      {"measurement": "Km", "setting": "[1]; correct insertion opposite template C (C.G), 55 μM dATP", "value": "0.19 ± 0.09", "unit": "µM"}
    ]}
  ]
}
